The values below come from US10335374B2, “Tablet composition for anti-tuberculosis antibiotics” (priority 2014, dated 2019).

Values after ≈ are worked out from the molar mass of the structure shown. Where two headings read alike, the source gives them in different places.

Data set [1] concerns M. tuberculosis H37Rv. Kind of data set: MIC, IC50 and IC90 under aerobic conditions (growth after five days). Format: cell-based, Mycobacterium tuberculosis.
The test system of data set [2] is M. tuberculosis H37Rv. In words: Minimum bactericidal concentration (kill kinetics, 21 days). The class given is cell-based. To be noted: for MBC: Mycobacterium tuberculosis, H37RV.
The conditions of data set [3]: in vivo; cited from earlier work.
A further data set deals with active TB. Kind of data set: MIC of capreomycin one and two component systems against active TB. Format: cell-based, Mycobacterium tuberculosis. On the procedure: The first antibiotic complex investigated with one and two component systems consisted of the second-line TB drug capreomycin which was bound to the copper(II) cation and the aggregate forming water soluble unbranched polymer PEG-3350. […] MIC values are defined as the lowest concentration of an antimicrobial (i.e. antifungal, antibiotic or bacteriostatic) drug that will inhibit the visible growth of a microorganism after incubation and is a common unit used to describe the level of efficacy of an antibiotic against a bacterium.

The conditions of data set [4]: rats (oral); cited from earlier work.
In data set [5] the test system is Mycobacterium Tuberculosis Infected Macrophages. The note with it: intracellular, published study; cited from earlier work.
The subject of data set [6] is Vero African green monkey kidney cell line. Kind of data set: Cytotoxicity towards eukaryotic cells. Format: cell-based. To be noted: Chlorocebus sabaeus, 48 h, two days.
Data set [7] deals with Murine J774 macrophages infected with a luminescent strain of H37Rv. The class given is cell-based, M. tuberculosis. To be noted: intracellular.
For data set [8] the following is noted: clinical trials, compared to placebo groups; cited from earlier work.
In the next data set the test system is H37Rv strain. In words: MIC of amikacin complexes, H37Rv strain. Format: cell-based, M. tuberculosis. To be noted: Mycobacterium tuberculosis, second set.
Another data set has as its system M. tuberculosis. In words: IC50, IC90 and MIC of amikacin one and two component complexes. The class given is cell-based. To be noted: Mycobacterium tuberculosis.
The mark [9] stands for this setting: Mycobacterium tuberculosis, H37RV, aerobic conditions, rifampicin complexes, second set.
Where [10] appears, read: Mycobacterium tuberculosis, H37RV, aerobic conditions, glucose series.
[11] abbreviates: Mycobacterium tuberculosis, H37RV, aerobic conditions, isoniazid-sucrose series, equal molar ratios.

Consider `CO[C@H]1/C=C/O[C@@]2(C)Oc3c(C)c(O)c4c(O)c(c(/C=N/N5CCN(C)CC5)c(O)c4c3C2=O)NC(=O)/C(C)=C\C=C\[C@H](C)[C@H](O)[C@@H](C)[C@@H](O)[C@@H](C)[C@H](OC(C)=O)[C@@H]1C` [rifampicin], for which the minimal inhibitory concentration (MIC) in the data set with M. tuberculosis H37Rv [1] (Mycobacterium tuberculosis, H37RV, H37Rv strain, rifampicin complexes, first set, read-out: MIC) worked out at 0.006 µM (≈ 0.00494 µg/mL). In the data set on M. tuberculosis H37Rv [1] (setting [9]), this molecule yielded an IC50 of 3 nM and an IC90 of 3 nM. For the same molecule, in the data set with M. tuberculosis H37Rv [1] (Mycobacterium tuberculosis, H37RV, aerobic conditions, rifampicin complexes, second set, read-out: MIC), the MIC worked out at 0.004 µM (≈ 0.00329 µg/mL). Besides, in the data set on M. tuberculosis H37Rv [2] (rifampicin complexes), the MBC came to 0.06 µM (≈ 0.0494 µg/mL) and the MBC/MIC came out at 15.

`CCO` [ethyl alcohol]: the LD50 in data set [3] is 14,000 mg/kg.

As for `[Cl][Cu][Cl]` [copper(II) chloride], the minimum inhibitory concentration (MIC) in the data set with active TB worked out at 0.39 µM. In addition, in data set [4], the LD50 is on record as 140 mg/kg.

With `COc1cc(C=O)ccc1O` [vanillin], the 50% lethal dose (LD50) in data set [3] was 1,580 mg/kg.

For the molecule `COc1c(N2CC[C@@H](C(C)(C)N)C2)c(F)cc2c(=O)c3c(=O)[nH]sc3n(C3CC3)c12` [ACH-702], the “drop of activity, log(kill) units” value in [5] is reported as ~1.3 log(kill) units.

Consider `[Cl-].[Na+]` [sodium chloride], for which the LD50 in data set [3] is 3,000 mg/kg.

As for `Cn1nnc(-c2ccc(-c3ccc(N4C[C@H](CO)OC4=O)cc3F)cn2)n1` [Tedizolid], the “drop of activity, log(kill) units” value in [5] was “approximately 1.4 log(kill) units”.

Consider capreomycin, for which the MIC in the data set with active TB was found to be 3.13 µM.

Consider `NNC(=O)c1ccncc1` [Isoniazid (INH), isoniazid], for which the IC50 was 470 nM in the data set on M. tuberculosis H37Rv [1] (setting [10]), 630 nM in the data set with M. tuberculosis H37Rv [1] (setting [11]) and more than 100000 nM in [6]. Besides, the IC90 was found to be 620 nM in the data set on M. tuberculosis H37Rv [1] (setting [10]) and 1000 nM in the data set on M. tuberculosis H37Rv [1] (setting [11]). Also, the minimal inhibitory concentration (MIC) with M. tuberculosis H37Rv [1] (Mycobacterium tuberculosis, H37RV, aerobic conditions, glucose series, read-out: MIC) came out at 0.64 µM (≈ 0.0878 µg/mL); in the data set with M. tuberculosis H37Rv [1] (Mycobacterium tuberculosis, H37RV, aerobic conditions, isoniazid-sucrose series, equal molar ratios, read-out: MIC), 0.97 µM. The minimal bactericidal concentration (MBC) in the data set with M. tuberculosis H37Rv [2] (isoniazid-sucrose series) came to 0.3 µM (≈ 0.0411 µg/mL). The “average log(kill) value” in data set [7] (average of table eight) is 2.5. Moreover, the “Log Kill” value in [7] (concentration 1.2 μM) and in [7] (concentration 12 μM) was 2.5 in each case.

Take `COc1nc2ccc(Br)cc2cc1[C@@H](c1ccccc1)[C@@](O)(CCN(C)C)c1cccc2ccccc12` [bedaquiline, Bedaquiline]: the “deaths in recipient groups” value in [8] was 11.4%.

Regarding vitamin A, the LD50 in [3] is recorded as 2,000 mg/kg.

For copper (II) chloride dihydrate, the MIC in the data set with M. tuberculosis H37Rv [1] (H37Rv strain, rifampicin complexes, first set) worked out at 105.7 µM.

Take copper gluconate: the LD50 in data set [4] is 1710 mg/kg.

Turning to `NCC[C@H](O)C(=O)N[C@@H]1C[C@H](N)[C@@H](O[C@H]2O[C@H](CN)[C@@H](O)[C@H](O)[C@H]2O)[C@H](O)[C@H]1O[C@H]1O[C@H](CO)[C@@H](O)[C@H](N)[C@H]1O` [amikacin], the MIC in the data set on H37Rv strain stood at 0.256 µM. In addition, in the data set on M. tuberculosis, the IC50 amounted to 216 nM, the IC90 is 328 nM and the MIC worked out at 0.39 µM.
